Test results reported in patent US20180064687A1, “PHARMACEUTICAL COMPOSITION FOR THE PREVENTION AND TREATMENT OF DISEASES ASSOCIATED WITH ELEVATED INDUCIBLE NITRIC OXIDE SYNTHASE” (AKCIJU SABIEDRIBA "OLAINFARM', priority 2015, published 2018).
Entries after “also recorded” stand apart in the source; their conditions may differ. Structures can show the parent of a compound that is named as a salt.

Tests used:
[1] = tested on: formalin-induced nociceptive responses; conditions: cited from earlier work; for nociceptive responses to formalin-produced peripheral neuropathy: systemic and intrathecal administration, mice and rats
[2] = tested on: NOS; conditions: patients with septic shock, cited from earlier work
[3] = tested on: iNOS gene expression; assay: LPS-induced iNOS gene overexpression in brain tissue, septic shock model (quantitative RT-PCR); format: in vivo; conditions: mice; 50 mg/kg injected simultaneously with LPS 20 mg/kg i.p.; tissue sampled 6 h after; compared with LPS group
Method: (§1) Male ICR mice weighing 25-30 g were obtained from the Laboratory of Experimental Animals, Riga Stradins University (Riga, Latvia), and housed under standard conditions (21-23° C., relative humidity 65%±10%, 12 h light-dark cycle) with unlimited access to standard food (R70 diet, Lactamin AB, Sweden) and water. The experimental procedures were performed in accordance with the guidelines reported in EU Directive 2010/63/EU and in accordance with local laws and policies; all of the procedures were approved by the Latvian Animal Protection Ethical Committee of Food and Veterinary Service in Riga, Latvia. To eliminate systematic differences between the treatment groups, the animals were randomly assigned to their respective experimental groups (12 animals in each group for formalin test and 6 animals in each group for LPS test). To avoid subjective factors in the rating process, all experimental procedures were performed in a blinded fashion.
The iNOS gene expression was stimulated by a single intraperitoneal (i.p.) injection of LPS at a dose of 20 mg/kg 6 h before the tissue sampling. Control animals received i.p. injection of saline (0.9% NaCl). […]
Brain tissue after sampling were immediately frozen in liquid nitrogen and stored at −80° C. […] Samples were diluted with water at v/v ratio of 1:20 and the quality and quantity of extracted total RNA were examined by measuring the absorbance at 230, 260 and 280 nm with a μQuant™ (BioTek) spectrophotometer. […] Quantitative RT-PCR analysis for iNOS was performed by mixing synthesized cDNA (diluted with water at v/v ratio of 1:10), appropriate primers, and SYBR® Green Master Mix (Applied Biosystems™, USA) and run in the Applied Biosystems Prism 7500 according to the manufacturer's protocol. The transcript levels for the constitutive housekeeping gene product β-actin were quantitatively measured for each sample, and PCR data were reported as the number of transcripts per number of β-actin mRNA molecules.

[4] = tested on: LPS-induced hypothermia; assay: LPS-induced hypothermia (rectal temperature), septic shock model; format: in vivo; conditions: mice; 50 mg/kg i.p. simultaneously with LPS 20 mg/kg; 6 h after injection
Method: as §1
The hypothermia was induced by an i.p. injection of LPS at a dose of 20 mg/kg. Control animals received i.p. injection of saline (0.9% NaCl). […] The rectal temperature of animals was measured using a thermometer (Thermalert TH-5, USA) at 5 min before LPS or saline injection and 6 hours after injection.

[5] = tested on: formalin-induced paw licking; assay: Formalin-induced paw licking test (formalin-induced peripheral neuropathy); format: in vivo; conditions: mice, pre-treatment 50 mg/kg
Method: as §1
Formalin-induced licking paw test was performed as described previously by Zvejniece et al 2006 (Zvejniece L., Muceniece R., Krigere L., Dambrova M., Klusa V. Z. Pharmacol. Biochem. Behav. 2006, 85 (2),287-91). Briefly, mice were gently restrained and 30 μl of formalin solution (1.5% in saline) was injected s.c. into the plantar surface of the right hind paw, using a microsyringe with a 27-gauge needle. Each mouse was then placed in an individual clear Plexiglas observation chamber (30×20×30 cm) and the total licking time of hind paw of each mouse was registered and quantified in subsequent 5-minute intervals for 50 minutes. The recording of licking time started immediately (first phase) and lasted for 5 min. The late phase (second phase) started about 15-20 min after formalin injection and lasted up to 35 min.

[6] = i.p. administration; cited from earlier work
[7] = in vivo; cited from earlier work
[8] = phase II, compared to saline treated group

For `CN(C)CCC=C1c2ccccc2CCc2ccccc21` [amitriptyline], the “peripheral nociception in formalin-induced paw licking test II phase” value (shortened to “peripheral nociception”) [1] is given as “anti-nociceptive activity”.

For `COC(=O)[C@@H](N)CCCNC(=N)N[N+](=O)[O-]` [L-NAME, Nω-nitro-L-arginine methyl ester], the “nociceptive responses to formalin-produced peripheral neuropathy” value [1] is listed as “reduces nociceptive responses”, the “results of the phase II trial in septic shock” value ([2]; placebo-controlled double-blind study) is listed as “promising” and the “mortality in the treatment group, phase III trial” value ([2]; trial terminated prematurely) is listed as “increase in mortality”.

For `O=[N+]([O-])c1cccc2cn[nH]c12` [7-nitroindazole], the “nociceptive responses to formalin-produced peripheral neuropathy” value [1] is listed as “reduces nociceptive responses”.

In the case of `N=C(N)NN` [aminoguanidine hydrochloride], the “peripheral nociception” value [1] is listed as “reduce peripheral nociception”.

In the case of `NC(=O)CN1C[C@@H](c2ccccc2)CC1=O` [(4R)-2-(4-phenyl-2-oxopyrrolidin-1-yl)acetamide], the “LPS-induced iNOS gene expression in brain tissue” value (from here on “LPS-induced iNOS gene expression”) [3] is reported as “highly effective; also recorded: significantly reduced”, the “LPS-induced hypothermia (rectal temperature)” value [4] is reported as “significantly inhibited” and the “reduction of the paw licking behavior in phase II” value ([5]; phase II) is reported as 46%. For the same molecule, the “paw licking response time in II phase” value [5, 8] was “significant inhibition”, the “dose up to which no side effects on the body system are caused” value [6] was at most 250 mg/kg and the excretion from body [7] was “totally excreted from body in unmetabolized form”.

For `NCC1(CC(=O)O)CCCCC1` [gabapentin], the “peripheral nociception” value [1] is listed as “anti-nociceptive activity”.

For `NC(=O)CN1CC(c2ccccc2)CC1=O` [(4R,S)-2-(4-phenyl-2-oxopyrrolidin-1-yl)acetamide], the “LPS-induced iNOS gene expression” value [3] was “tendency to reduce LPS action; also recorded: did not reduce”, the “paw-licking time in I phase” value ([5]; phase I, compared to saline treated group) was “did not reduce; also recorded: almost no effect” and the “paw licking response time in II phase” value [5, 8] was “did not reduce; also recorded: almost no effect”.

With `NC(=O)CN1C[C@H](c2ccccc2)CC1=O` [(4S)-2-(4-phenyl-2-oxopyrrolidin-1-yl)acetamide] the “LPS-induced iNOS gene expression” value [3] was “absolutely inactive; also recorded: did not reduce”.

For `CC(C)C[C@H](CN)CC(=O)O` [pregabalin], the “peripheral nociception” value [1] is listed as “anti-nociceptive activity”.

In the case of `N#Cc1ccc(C(=O)N2CCC3(CC2)N=C(N)c2c(F)ccc(F)c2N3)cn1` [AR-C102222], the “peripheral nociception” value [1] is listed as “reduce peripheral nociception”.
